The numbers were not newly measured in paper PMC8878452, “A Tale of Toxin Promiscuity: The Versatile Pharmacological Effects of Hcr 1b-2 Sea Anemone Peptide on Voltage-Gated Ion Channels” (Marine Drugs, 2022), which cites them from elsewhere.

One data set deals with hERG. The note with it: cited from earlier work. From the text: APETx1 are known to modulate hERG [21], Nav1.2–1.6, and Nav1.8 [20], while APETx2 modulates ASICs, Kv3.4, [22], and hERG [23], as well as Nav1.2, Nav1.6, and Nav1.8 [20]. APETx3 is known for interacting with Nav1.2–1.4, Nav1.6, DmNav1, BgNav1, and VdNav1 [20]. […] Previous studies have shown that F15, Y32, F33, and L34 seem to be key residues for the interaction between APETx1 and hERG, as they are located on the molecular surface of this peptide. Hcr 1b-2 shares the same residues in its sequence (Figure 1), which can explain the similar effect observed.

For another data set, the system named is BgNav1. The note with it: cited from earlier work; for effect on insect channel BgNav: printed BgNav. From the text:
(§1) APETx1 are known to modulate hERG [21], Nav1.2–1.6, and Nav1.8 [20], while APETx2 modulates ASICs, Kv3.4, [22], and hERG [23], as well as Nav1.2, Nav1.6, and Nav1.8 [20]. APETx3 is known for interacting with Nav1.2–1.4, Nav1.6, DmNav1, BgNav1, and VdNav1 [20]. […] Like Hcr 1b-2, APETx1 inhibits the mammalian Nav1.2–1.6 and Nav1.8 isoforms, while APETx2 acts on Nav1.2, Nav1.6, and Nav1.8.

For another data set, the system named is Nav1.2. The following applies: cited from earlier work.
Description: as §1

The next data set relates to Nav1.3. The note with it: cited from earlier work.
Description: as §1

The next data set has as its system Nav1.4. The following applies: cited from earlier work.
Description: as §1

Another data set relates to Nav1.5. The following applies: cited from earlier work.
Description: as §1

A further data set has as its system Nav1.6. The note with it: cited from earlier work.
Description: as §1

The test system of another data set is Nav1.8. The following applies: cited from earlier work.
Description: as §1

The test system of a further data set is Nav1.1. The following applies: cited from earlier work. From the text:
(§2) APETx1 and APETx2 are well-known sea anemone peptides that are characterized as sodium channel modulators. Like Hcr 1b-2, APETx1 inhibits the mammalian Nav1.2–1.6 and Nav1.8 isoforms, while APETx2 acts on Nav1.2, Nav1.6, and Nav1.8.

The test system of a further data set is Nav1.7. The note with it: cited from earlier work.
Description: as §2

A further data set has as its system ASIC. On the set-up: method as in 2 sources, one per row (each row's own in cited_ref): ref 17 = [17]; PMID 29684594; doi:10.1016/j.peptides.2018.04.013; 17. Kalina R. Gladkikh I. Dmitrenok P. Chernikov O. Koshelev S. Kvetkina A. Kozlov S. Kozlovskaya E. Monastyrnaya M. New APETx-like peptides from sea anemone Heteractis crispa modulate ASIC1a channels ||| ref 22 = [22]; PMID 15044953; doi:10.1038/sj.emboj.7600177; 22. Diochot S. Baron A. Rash L.D. Deval E. Escoubas P. Scarzello S. Salinas M. Lazdunski M. A new sea anemone peptide, APETx2, inhibits ASIC3, a major acid-sensitive channel in sensory neurons EMBO J. The note with it: cited from earlier work.

The test system of another data set is Kv3.4. On the set-up: method as in 2 sources, ref 22 = [22]; PMID 15044953; doi:10.1038/sj.emboj.7600177; 22. Diochot S. Baron A. Rash L.D. Deval E. Escoubas P. Scarzello S. Salinas M. Lazdunski M. A new sea anemone peptide, APETx2, inhibits ASIC3, a major acid-sensitive channel in sensory neurons EMBO J. ||| ref 33 = [33]; PMID 16177043; doi:10.1523/JNEUROSCI.2119-05.2005; 33. Yeung S.Y. Thompson D. Wang Z. Fedida D. Robertson B. Modulation of Kv3 subfamily potassium currents by the sea anemone toxin BDS: Significance for CNS and biophysical studies J. Neurosci. 2005 25. The note with it: cited from earlier work.

The subject of another data set is Nav channels. The note with it: cited from earlier work.
Description: as §2

The test system of the next data set is DmNav1. The note with it: cited from earlier work. The source says: (§3) APETx1 are known to modulate hERG [21], Nav1.2–1.6, and Nav1.8 [20], while APETx2 modulates ASICs, Kv3.4, [22], and hERG [23], as well as Nav1.2, Nav1.6, and Nav1.8 [20]. APETx3 is known for interacting with Nav1.2–1.4, Nav1.6, DmNav1, BgNav1, and VdNav1 [20].
For the next data set, the system named is VdNav1. The note with it: cited from earlier work.
Description: as §3

For another data set, the system named is Kv1.3. The following applies: cited from earlier work.
Description: as §3

The next data set deals with Kv1.4. The note with it: cited from earlier work.
Description: as §3

For another data set, the system named is Kv1.5. The following applies: cited from earlier work.
Description: as §3

For a further data set, the system named is Kv2.1. The following applies: cited from earlier work.
Description: as §3

A further data set relates to Kv10.1. The following applies: cited from earlier work.
The next data set deals with Kv3.1. The note with it: cited from earlier work. The source says:
(§4) The only targets in which Hcr 1b-2 was not active were Kv3.1 and Kv10.1 (Figure 2 and Figure 3). Among sea anemone toxins, BDS-I, from Anemonia sulcata, is a well-characterized toxin capable of inhibiting isoforms from the Kv3 family, being active on Kv3.1, Kv3.2, and Kv3.4 [33].

A further data set deals with Kv3.2. The following applies: cited from earlier work.
Description: as §4

The next data set concerns TTX-resistant isoforms. The note with it: cited from earlier work.
Description: as §4

The next data set concerns TTX-sensitive channels. The following applies: cited from earlier work.
Description: as §4

“Also recorded” adds a separate entry of the source. Like-named read-outs stand apart in the source and are kept apart here. Where no end group is shown, it is not given here.

On to “APETx1: APETx family peptide from Anthopleura elegantissima, UniProt P61541 (GTTCYCGKTIGIYWFGTKTCPSNRGYTGSCGYFLGICCYPVD; ends and bridges not checked; cysteine pairing not given here; UniProt P61541 1-42, looked up)”, for which the “effect on hERG” value in the data set on hERG is given as “modulate”. Besides, in the data set with BgNav1, the “effect on insect channel BgNav” value is recorded as “unaffected”. In addition, in the data set with Nav1.2, the “effect on Nav1.2” value is on record as “modulate; also recorded: inhibits”. For the same substance, the “effect on Nav1.3” value in the data set with Nav1.3 was “modulate; also recorded: inhibits”. The “effect on Nav1.4” value in the data set with Nav1.4 is reported as “modulate; also recorded: inhibits”. In the data set on Nav1.5, the “effect on Nav1.5” value is given as “modulate; also recorded: inhibits”. Further, the “effect on Nav1.6” value in the data set on Nav1.6 is listed as “modulate; also recorded: inhibits”. The “effect on Nav1.8” value in the data set with Nav1.8 is on record as “modulate; also recorded: inhibits”. Besides, the “effect on Nav1.1” value in the data set on Nav1.1 is “unaffected”. Also, in the data set on Nav1.7, the “effect on Nav1.7” value is on record as “unaffected”.
“APETx2: APETx family peptide from Anthopleura elegantissima, UniProt P61542 (GTACSCGNSKGIYWFYRPSCPTDRGYTGSCRYFLGTCCTPAD; ends and bridges not checked; cysteine pairing not given here; UniProt P61542 1-42, looked up)”: in the data set on ASIC, the “effect on ASICs” value was “modulates”. Further, the “effect on hERG” value in the data set with hERG is given as “modulates”. Further, the “effect on insect channel BgNav” value with BgNav1 is listed as “unaffected”. For the same substance, in the data set on Nav1.2, the “effect on Nav1.2” value is “modulates; also recorded: acts on”. Besides, the “effect on Nav1.6” value in the data set on Nav1.6 is recorded as “modulates; also recorded: acts on”. Besides, in the data set on Nav1.8, the “effect on Nav1.8” value was “modulates; also recorded: acts on”. The “effect on Kv3.4” value with Kv3.4 is “modulates”. Besides, the “modulation of voltage-dependence of Nav channels” value with Nav channels is on record as “did not modulate the voltage-dependence”. The “effect on Nav1.1” value in the data set on Nav1.1 is on record as “unaffected”. Also, the “effect on Nav1.7” value with Nav1.7 is “unaffected”.
As for “APETx3: APETx family peptide from Anthopleura elegantissima, UniProt B3EWF9 (GTPCYCGKTIGIYWFGTKTCPSNRGYTGSCGYFLGICCYPVD; ends and bridges not checked; cysteine pairing not given here; UniProt B3EWF9 1-42, looked up)”, the “effect on hERG” value in the data set with hERG (Thr3Pro substitution) is “abolishes the activity”. Moreover, the “effect on BgNav1” value in the data set with BgNav1 is “interacting”. Moreover, in the data set on Nav1.2, the “effect on Nav1.2” value is reported as “interacting”. For the same substance, the “effect on Nav1.3” value in the data set on Nav1.3 was “interacting”. Besides, in the data set on Nav1.4, the “effect on Nav1.4” value was “interacting”. In the data set with Nav1.6, the “effect on Nav1.6” value was “interacting”. In the data set on DmNav1, the “effect on DmNav1” value is given as “interacting”. In addition, the “effect on VdNav1” value with VdNav1 is listed as “interacting”.
Regarding “APETx4: APETx family peptide from Anthopleura elegantissima, UniProt C0HL40 (GTTCYCGKTIGIYWFGKYSCPTNRGYTGSCPYFLGICCYPVD; ends and bridges not checked; cysteine pairing not given here; UniProt C0HL40 1-42, looked up)”, the “effect on Nav1.4” value in the data set with Nav1.4 is on record as “modulates”. In addition, the “effect on Nav1.5” value with Nav1.5 is listed as “modulates”. Further, the “effect on Nav1.6” value with Nav1.6 is “modulates”. For the same substance, the “effect on Kv1.3” value in the data set on Kv1.3 is on record as “modulates”. Further, the “effect on Kv1.4” value with Kv1.4 is “modulates”. Moreover, in the data set with Kv1.5, the “effect on Kv1.5” value is listed as “modulates”. The “effect on Kv2.1” value in the data set with Kv2.1 was “modulates”. For the same substance, the “effect on Kv10.1” value in the data set with Kv10.1 was “notorious Kv10.1 inhibitor; also recorded: non-selective Kv10.1 inhibitor”.
On to “BDS-I: toxin from Anemonia sulcata, UniProt P11494 (AAPCFCSGKPGRGDLWILRGTCPGGYGYTSNCYKWPNICCYPH; UniProt P11494 1-43, looked up)”, for which, in the data set on Kv3.4, the “effect on Kv3.4” value is given as “active”. In the data set on Kv3.1, the “effect on Kv3.1” value is “active”. In the data set with Kv3.2, the “effect on Kv3.2” value is listed as “active”. Moreover, the “effect on TTX-resistant isoforms” value with TTX-resistant isoforms is “weakly affected”. Further, the “effect on TTX-sensitive channels” value with TTX-sensitive channels is “strongly enhances”.
